Several values for one entry are separate records, joined by “and”; a condition that tells them apart may be missing. Equal values may be shown once. Read-outs that look alike come from different tables or passages of the source.
Assays:
[1] = bile salts; cited from earlier work
[2] = intravenous infusion, fasting individuals; cited from earlier work
[3] = Subcutaneous GLP-1 in fasting subjects (study by M. A. Nauck, FIG. 6), regression analysis; assay type: in vivo, human (fasting subjects)
Text: This could be due to changes in bioavailability with dose, changes in clearance with dose, or a combination of both effects.

[4] = in vivo; cited from earlier work
[5] = Buccal bilayer tablet, double-blind placebo-controlled crossover: blood glucose, plasma insulin and glucagon; assay type: in vivo, human (healthy volunteers)
Text: (§1) This example describes a double-blind, placebo-controlled, crossover comparison with random assignment to treatment sequence. […] Inclusion criteria for the volunteers were normal glucose tolerance, weight within 22<BMI<26, informed consent to participate in the study, and age between 20 and 60 years. Exclusion criteria were impaired glucose tolerance (2-hour glucose tolerance test; OGTT), gastrointestinal symptoms, ongoing medication or illness, acute infection, abnormal laboratory variables (hemoglobin, hematocrit, leucocytes, creatinine, bilirubin, calcium, potassium, sodium, alkaline phosphatase, gamma-GT, SGOT, SGPT, cholesterol, and triglycerides), and blood pressure greater than 185 mmHg systolic and/or 90 mmHg diastolic.
Subject numbers were allotted to the subjects in the order in which they were enrolled in the study. The number allotted to each subject determined the treatment sequence received. Subjects receiving treatment sequence 1 were treated with drug followed by placebo, and subjects receiving treatment sequence 2 were treated with placebo followed by drug.
(§2) Subjects were instructed to fast the night before a treatment. At the clinic, the subjects were given either a drug-containing bilayer tablet or placebo. At time 0 the bilayer tablet was applied to the gingiva with the active layer in contact with the tissue of the lip or inside of the cheek, and the subjects were placed in a rest position. The bilayer tablet was removed after 4.5 hours. No meals were allowed until a standard meal was given after 4.5 hours, and snacks were not permitted at any time. The standard meal contained 550 kcal, with 28%, 22%, and 50% of the energy from protein, fat, and carbohydrate, respectively. The test continued until 8 hours after application of the bilayer tablet, and the subjects left the hospital after 9 hours. The subjects were given their medications in the clinic by a nurse and were under observation at all times. Any symptoms or sensations disturbing or impairing the subjects' wellbeing during the experiments was carefully documented. Standard safety variables were determined under fasting conditions before each experiment. Blood glucose was monitored frequently and glucose infusion was available in case of hypoglycemia (<2.5 mmol/L). If any subject were to experience hypoglycemic symptoms, an extra blood glucose determination would be taken for safety reasons A washout period of 1-4 days was allowed between each experiment The study was completed within 6 weeks after enrollment of the first volunteer.
(§3) The peptide content of bilayer tablet samples was also analyzed by HPLC. […] Results were tested for normal distribution. A two-tailed t-test was carried out for normally distributed samples, and a Wilcoxon rank-sum test was used for data that were not normally distributed. All statistical tests used a level of significance of 0.05.

[6] = Plasma GLP-1(7-36)amide pharmacokinetics after buccal bilayer tablet; assay type: in vivo, human (healthy volunteers)
Text: as §1, §2, §3
This was done in comparison to published data.
The data summarized in FIG. 5 were analyzed by AUC to provide an estimate of relative bioavailability by buccal administration as compared to subcutaneous administration.

[7] = Buccal delivery of salmon calcitonin in dogs; assay type: in vivo, dog (mongrel dogs); set-up: AUC infinity, buccal / AUC infinity, iv: concentration or dose not given beside the values
Description: (§4) Bilayer tablets prepared according to Examples 13-15 were tested in in vivo experiments to determine their effectiveness in delivering peptide X systemically to dogs. Mongrel dogs each weighing 30-35 kg were conditioned for one month prior to use. The dogs were mildly sedated with acepromazine, but were awake for the duration of each experiment. Tablets were attached to the gingiva with the active layer contacting and in drug transfer relationship to the buccal mucosa of the upper lip. Nylon muzzles were used to prevent the animals from licking the tablets. In this model, normal salivary functions were preserved and no irrigation was required. The saphenous vein was catheterized to permit venous blood sampling. Blood samples were collected into citrate "[…]" tubes and immediately chilled on ice for 15 minutes and then centrifuged for 10 minutes at 3400 rpm. The resultant supernatant plasma was then collected and stored in capped polypropylene tubes at -70° C. until analyzed for peptide X content.
The procedure of Example 16 was followed with the exception that salmon calcitonin was substituted for peptide X, and tablet sizes and numbers were varied in some experiments.

[8] = colon of a baboon, cited from earlier work
[9] = Buccal delivery of insulin in dogs: blood glucose; assay type: in vivo, dog (mongrel dogs); settings: 5 U/kg
Description: as §4
The procedure of Example 16 was followed with insulin-containing tablets prepared according to Example 6. The results shown in FIG. 8 are the average of 4 dogs, each given one 0.375 inch diameter buccal tablet containing 5 U/kg of drug. […] Beginning about 60 minutes after application, the blood glucose levels start to rise again, reaching normal levels about 120 minutes after application.

[10] = buccal bilayer tablet, 400 μg, FIG. 3
[11] = buccal bilayer tablet, 400 μg, FIG. 4
[12] = buccal bilayer tablet, 400 μg, fasting, FIG. 2
[13] = buccal bilayer tablet, 400 μg, FIG. 5
[14] = individual subjects 901-908 and mean, buccal, dose 119 nmol
[15] = average of 4 dogs, one 0.375 inch buccal tablet, FIG. 8

## C[C@H](CCC(=O)O)[C@H]1CC[C@H]2[C@@H]3[C@H](O)C[C@@H]4C[C@H](O)CC[C@]4(C)[C@H]3CC[C@]12C [chenodeoxycholate]
[1]
  Order of effectiveness in enhancing nasal absorption of insulin: deoxycholate≤chenodeoxycholate≤cholate≤ursodeoxychola te

## C[C@H](CCC(=O)O)[C@H]1CC[C@H]2[C@@H]3[C@H](O)C[C@@H]4C[C@H](O)CC[C@]4(C)[C@H]3C[C@H](O)[C@]12C [cholate]
[1]
  Order of effectiveness in enhancing nasal absorption of insulin: deoxycholate≤chenodeoxycholate≤cholate≤ursodeoxychola te

## C[C@H](CCC(=O)O)[C@H]1CC[C@H]2[C@@H]3[C@@H](O)C[C@@H]4C[C@H](O)CC[C@]4(C)[C@H]3CC[C@]12C [ursodeoxychola te]
[1]
  Order of effectiveness in enhancing nasal absorption of insulin: deoxycholate≤chenodeoxycholate≤cholate≤ursodeoxychola te

## GLP-1
[2]
  Clearance: ~15 mL/min/kg
[3]; fasting subjects
  Bioavailability by subcutaneous administration relative to intravenous administration: 38%
[3]; subcutaneous, regression analysis of all the results
  Clearance: about 40 ml/min/kg

## GLP-1(7-36)amide: gastrointestinal hormone processed from the preproglucagon gene; the naturally occurring form in humans
[4]
  Effect on glucose-induced insulin release: potentiates glucose-induced insulin release
[5]; about 30 minutes, buccal bilayer tablet, 400 μg, FIG. 4
  Plasma glucagon level at its low compared to placebo: significantly lower than the placebo group
[5]; after the low, buccal bilayer tablet, 400 μg, FIG. 4
  Plasma glucagon level at its peak compared to placebo: significantly higher than the placebo group
[5]; [10]
  Start of rise of plasma insulin level: 10 min
  Time of decline of plasma insulin to normal: about 50 minutes
  Time of peak plasma insulin level: about 20 minutes
[5]; [11]
  Time from which plasma glucagon tracks the placebo group: about 150 minutes
  Time of low of plasma glucagon level: about 30 minutes
  Time of peak of plasma glucagon level: 60 to 75 min
[5]; buccal bilayer tablet, 400 μg, fasting
  Blood glucose levels compared to placebo controls: significantly reduced blood glucose levels as compared to placebo controls
[5]; [12]
  Lowest blood glucose level: about 3 mmol/L
  Time by which blood glucose drops below that of the placebo group: ≤ 20 min
  Time of lowest blood glucose level: about 50 minutes
  Time of return of blood glucose to a normal level: about 90 minutes
[5]; drug vs placebo, after standard meal at 4.5 hours
  Blood glucose levels of the two groups after the meal: indistinguishable after the meal
[5]; relative to normal, buccal bilayer tablet, 400 μg, FIG. 3
  Plasma insulin level at 15 minutes after administration: about three time normal
[6]; after standard meal at 4.5 hours
  Plasma GLP-1(7-36)amide level after the meal compared to placebo: approximately the same as that of the placebo group
[6]; buccal bilayer tablet, 400 μg
  Absorption through the buccal mucosa into the bloodstream: rapid absorption through the buccal mucosa into the bloodstream
[6]; [13]
  Start of rise of plasma GLP-1(7-36)amide level: ≤ 5 min
  Time from which plasma GLP-1(7-36)amide tracks the placebo group: about 150 minutes
  Time of peak plasma GLP-1(7-36)amide level: about 30 minutes
  Time until which plasma GLP-1(7-36)amide declines rapidly: about 90 minutes
[6]; [14]
  AUC: 11343 pmol·min/L and 3278 pmol·min/L and 8024 pmol·min/L and 9113 pmol·min/L and 7250 pmol·min/L and 8753 pmol·min/L and 8410 pmol·min/L
  Bioavailability: 10.01% and 2.89% and 7.08% and 6.40% and 7.72% and 7.42%
  Dose (second Dose column): 11.91 nmol and 3.44 nmol and 9.57 nmol and 7.61 nmol and 9.19 nmol and 8.83 nmol

## Salmon Calcitonin
[7]; bilayer tablet
  Buccal delivery into the bloodstream: delivered into the bloodstream of a warm-blooded animal by buccal delivery
[7]; individual dogs (Dog ID#), 2 buccal tablets, 1.27 or 0.71 cm^2
  ng Absorbed: 72,958 ng and 16,461 ng and 20,989 ng and 6,535 ng and 23,379 ng and 17,614 ng
[7]; individual dogs (Dog ID#), 2 tablets, first figure of "buc/iv"
  AUC infinity, buccal: 139 and 66 and 84 and 26 and 64 and 38
[7]; individual dogs (Dog ID#), second figure of "buc/iv"
  AUC infinity, iv: 76 and 159 and 106 and 87

## heparin
[8]; with sodium cholate or deoxycholate
  Activity with bile salts in the formulation: significant activity is detected
[8]; without bile salt
  Transmucosal intestinal delivery (partial thromboplastin time prolongation or plasma lipase release): not apparent

## insulin: insulin-containing tablets prepared according to Example 6 (human insulin)
[9]; [15]
  Start of rise of blood glucose: about 60 minutes
  Start of sharp drop of blood glucose: about 15 minutes
  Time of low level of blood glucose: about 40 minutes
  Time of return of blood glucose to normal levels: about 120 minutes
[9]; buccal delivery
  Control of blood glucose levels: effective in controlling blood glucose levels

Reference: patent publication US5849322A, “Compositions and methods for buccal delivery of pharmaceutical agents” (Theratech, Inc., priority 1995, dated 1998)
